Laboratory results as given in patent US8217035B2, “Pyrimidine derivatives used as PI-3-kinase inhibitors” (Novartis AG, priority 2006, dated 2012).
Where two headings read alike, the source gives them in different places.

Key:
PI3 kinase alpha = PI3 kinase alpha (Homo sapiens, UniProt P42336); assay: PI3K ATP depletion assay (Biological Method 1, Assay 3; KinaseGlo luminescence); format: biochemical; conditions: ATP depletion assay, read-out: PI3 Kinase Alpha, IC50
Procedure: The PI3 kinase alpha IC50 values shown in Table 1 were determined according to the ATP depletion assay as disclosed herein in Biological Method 1.
Assay 3: ATP Depletion Assay
Compounds to be tested are dissolved in DMSO and directly distributed into a black 384-well plate at 1.25 μL per well. To start the reaction, 25 μL of 10 nM PI3 kinase and 5 μg/mL 1-alpha-phosphatidylinositol (PI) are added into each well followed by 25 μL of 2 μM ATP. The reaction is performed until approx 50% of the ATP is depleted, and then stopped by the addition of 25 μL of KinaseGlo solution purchased from Promega. The stopped reaction is incubated for 5 minutes and the remaining ATP is then detected via luminescence.

[1] = system: A2780 ovarian cancer cells; assay: Cellular proliferation in A2780 cells, Cell Titer Glo (Biological Method 4); format: cell-based; conditions: Homo sapiens
Procedure: In addition, many of the compounds of Table 1 were tested to determine their inhibitory activity in a cellular proliferation assay according to Biological Method 4.
The ability of the compounds of the invention to inhibit cellular proliferation were determined by using Cell Titer Glo, a commercially available assay from Promega Corporation. A2780 ovarian cancer cells were seeded in TC treated 96-well plates at a density of 1,000 per well in DMEM, 10% FBS, 1% Sodium Pyruvate, and 1% Penicillin Streptomycin for a minimum of 2 hrs prior to addition of compound. For each concentration of test compound, 2 μl (500×) aliquots of compound or 100% DMSO diluted in 500 μl of culture medium for 2× concentration then diluted 1× on the Cells. Cells were incubated for 72 hrs at 37° C., 5% CO2. After the 72 hour incubation, Cell Titer Glo reagent is added to determine number of viable cells remaining after exposure to the compound, and the EC50 value was calculated. The assay was performed according to the manufacturer's instruction (Promega Corporation, Madison, Wis. USA). Each experimental condition was performed in duplicate.

[2] = ovarian cancer cell line A2780, Biological Method 4

PI3 kinase alpha, sequence (P42336 whole entry): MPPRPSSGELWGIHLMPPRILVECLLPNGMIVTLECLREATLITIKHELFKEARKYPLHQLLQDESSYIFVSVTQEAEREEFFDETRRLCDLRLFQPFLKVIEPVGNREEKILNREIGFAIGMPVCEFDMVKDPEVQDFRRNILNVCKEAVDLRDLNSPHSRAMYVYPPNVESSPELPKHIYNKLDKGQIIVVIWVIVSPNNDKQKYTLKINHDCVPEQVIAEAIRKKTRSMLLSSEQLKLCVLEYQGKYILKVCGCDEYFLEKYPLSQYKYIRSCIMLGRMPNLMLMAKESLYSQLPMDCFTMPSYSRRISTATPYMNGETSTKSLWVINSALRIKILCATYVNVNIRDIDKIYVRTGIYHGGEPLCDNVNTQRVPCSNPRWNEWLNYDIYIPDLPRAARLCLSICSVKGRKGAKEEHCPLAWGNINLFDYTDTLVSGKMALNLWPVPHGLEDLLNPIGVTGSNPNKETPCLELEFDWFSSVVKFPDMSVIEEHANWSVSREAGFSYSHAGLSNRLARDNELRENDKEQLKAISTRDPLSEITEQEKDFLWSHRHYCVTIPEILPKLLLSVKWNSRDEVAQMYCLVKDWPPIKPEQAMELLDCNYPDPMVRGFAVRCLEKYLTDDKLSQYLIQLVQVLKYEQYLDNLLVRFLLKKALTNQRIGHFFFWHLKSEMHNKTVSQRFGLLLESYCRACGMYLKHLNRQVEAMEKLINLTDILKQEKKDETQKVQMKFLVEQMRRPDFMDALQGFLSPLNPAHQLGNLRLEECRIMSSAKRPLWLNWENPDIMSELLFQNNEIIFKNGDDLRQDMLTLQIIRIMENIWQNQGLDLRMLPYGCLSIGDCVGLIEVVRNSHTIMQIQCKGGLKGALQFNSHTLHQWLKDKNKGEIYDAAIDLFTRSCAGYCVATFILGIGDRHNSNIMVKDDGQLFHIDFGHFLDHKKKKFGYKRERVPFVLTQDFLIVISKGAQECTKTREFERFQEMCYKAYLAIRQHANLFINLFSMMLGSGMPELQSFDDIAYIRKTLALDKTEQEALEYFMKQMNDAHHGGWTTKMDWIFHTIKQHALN
PI3 kinase alpha, sequence (P27986 whole entry partner): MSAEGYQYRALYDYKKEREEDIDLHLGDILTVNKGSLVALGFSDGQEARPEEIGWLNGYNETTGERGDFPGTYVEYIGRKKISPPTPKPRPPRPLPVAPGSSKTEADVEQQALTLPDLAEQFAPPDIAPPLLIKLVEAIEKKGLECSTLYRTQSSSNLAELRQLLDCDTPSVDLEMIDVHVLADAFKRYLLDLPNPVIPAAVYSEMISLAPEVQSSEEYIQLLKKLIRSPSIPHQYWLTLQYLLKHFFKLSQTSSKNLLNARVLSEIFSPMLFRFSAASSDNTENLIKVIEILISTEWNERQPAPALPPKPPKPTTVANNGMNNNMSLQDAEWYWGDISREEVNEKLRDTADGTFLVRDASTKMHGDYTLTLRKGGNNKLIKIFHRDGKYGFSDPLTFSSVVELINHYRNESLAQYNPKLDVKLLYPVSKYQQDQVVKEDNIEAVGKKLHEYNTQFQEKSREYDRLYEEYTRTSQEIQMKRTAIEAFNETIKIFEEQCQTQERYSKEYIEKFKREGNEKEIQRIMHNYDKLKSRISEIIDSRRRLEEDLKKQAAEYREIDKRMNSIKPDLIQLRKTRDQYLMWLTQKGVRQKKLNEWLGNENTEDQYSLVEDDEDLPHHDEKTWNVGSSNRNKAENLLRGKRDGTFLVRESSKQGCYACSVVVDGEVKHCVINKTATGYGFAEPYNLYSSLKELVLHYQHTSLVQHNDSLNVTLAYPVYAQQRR

| SMILES | IC50 (PI3 kinase alpha) [nM] | EC50 ([1]; ovarian cancer cell line A2780) [nM] | IC50 (PI3 kinase alpha; Biological Method 1) [nM] | EC50 [1, 2] [nM] |
| --- | --- | --- | --- | --- |
| Nc1cc(C(F)(F)F)c(-c2cc(N3CCOC(c4ccccc4)C3)nc(N3CCOCC3)n2)cn1 (stereo not shown) [Compound 344] | – | – | < 1000 | < 10000 |
| N#Cc1cnc(Nc2cc(-c3cnc(N)nc3C(F)(F)F)nc(N3CCOCC3)n2)s1 [Compound 545] | – | < 25000 | – | – |
| COc1ccc2cc(Nc3cc(-c4ccc(N)nc4)nc(N4CCOCC4)n3)cnc2c1 [Compound 494] | < 1000 | < 25000 | – | – |
| Nc1cc(C(F)(F)F)c(-c2cc(Nc3cccc(S(=O)(=O)CCO)c3)nc(N3CCOCC3)n2)cn1 [Compound 318] | – | – | < 1000 | < 10000 |
| NC(=O)c1ccccc1Nc1cc(-c2ccc(N)nc2)nc(N2CCOCC2)n1 [Compound 352] | – | – | < 1000 | < 10000 |
| CS(=O)(=O)N1CC[C@H](Oc2cc(-c3cnc(N)cc3C(F)(F)F)nc(N3CCOCC3)n2)C1 [Compound 524] | < 1000 | < 10000 | – | – |
| CS(=O)(=O)N1CC[C@@H](Oc2cc(-c3cnc(N)cc3C(F)(F)F)nc(N3CCOCC3)n2)C1 [Compound 540] | < 1000 | < 10000 | – | – |
| N#Cc1ccc(Nc2cc(-c3cnc(N)cc3C(F)(F)F)nc(N3CCOCC3)n2)cn1 [Compound 284] | – | – | < 1000 | < 10000 |
| Nc1cc(C(F)(F)F)c(-c2cc(-c3cncc(S(=O)(=O)CCO)c3)nc(N3CCOCC3)n2)cn1 [Compound 265] | – | – | < 1000 | < 10000 |
| CN1CCN(Cc2cncc(-c3cc(-c4ccc(N)nc4)nc(N4CCOCC4)n3)c2)CC1 [Compound 273] | – | – | < 1000 | < 10000 |
| Nc1ccc(-c2cc(Nc3ccc(-c4cnco4)cc3)nc(N3CCOCC3)n2)cn1 [Compound 357] | – | – | < 1000 | < 25000 |
| N#Cc1cc(N)ncc1-c1cc(-c2cnc(N)cc2C#N)nc(N2CCOCC2)n1 [Compound 317] | – | – | < 1000 | < 10000 |
| Nc1cc(C(F)(F)F)c(-c2cc(Nc3ccc(-c4nn[nH]n4)nc3)nc(N3CCOCC3)n2)cn1 [Compound 282] | – | – | < 1000 | < 25000 |
| Nc1ncc(-c2cc(O[C@@H]3CCCN(C(=O)OC4CCCC4)C3)nc(N3CCOCC3)n2)c(N)n1 [Compound 526] | < 1000 | < 10000 | – | – |
| Nc1cc(C(F)(F)F)c(-c2cc(Nc3cnc4ccc(OCCN5CCCC5)cc4c3)nc(N3CCOCC3)n2)cn1 [Compound 489] | < 1000 | < 10000 | – | – |
| Nc1ccc(-c2cc(Nc3cccc(F)c3)nc(N3CCOCC3)n2)cn1 [Compound 439] | < 1000 | < 10000 | – | – |
| C[C@@H]1CN(c2cc(-c3cnc(N)cc3C(F)(F)F)nc(N3CCOCC3)n2)C[C@H](C)O1 [Compound 327] | – | – | < 1000 | < 10000 |
| CN1CCC(Oc2ccc(Nc3cc(-c4ccc(N)nc4)nc(N4CCOCC4)n3)cn2)CC1 [Compound 276] | – | – | < 1000 | < 10000 |

| SMILES | IC50 (PI3 kinase alpha) [nM] | EC50 ([1]; ovarian cancer cell line A2780) [nM] | IC50 (PI3 kinase alpha; Biological Method 1) [nM] | EC50 [1, 2] [nM] |
| --- | --- | --- | --- | --- |
| CS(=O)(=O)Nc1ncccc1-c1cc(-c2cnc(N)nc2N)nc(N2CCOCC2)n1 [Compound 260] | – | – | < 1000 | < 10000 |
| Nc1cc(C(F)(F)F)c(-c2cc(N3CCOC(c4cccnc4)C3)nc(N3CCOCC3)n2)cn1 (stereo not shown) [Compound 338] | – | – | < 1000 | < 10000 |
| N#Cc1ccccc1Nc1cc(-c2ccc(N)nc2)nc(N2CCOCC2)n1 [Compound 441] | < 1000 | < 10000 | – | – |
| Nc1cc(C(F)(F)F)c(-c2cc(N3CCOC(CN4CCCC4)C3)nc(N3CCOCC3)n2)cn1 (stereo not shown) [Compound 220] | – | – | < 10000 | < 25000 |
| COc1nc2ccccc2cc1Nc1cc(-c2ccc(N)nc2)nc(N2CCOCC2)n1 [Compound 287] | – | – | < 1000 | < 10000 |
| CC(=O)c1ccccc1-c1cc(-c2ccc(N)nc2)nc(N2CCOCC2)n1 [Compound 255] | – | – | < 1000 | < 25000 |
| COc1ncccc1Nc1cc(-c2ccc(N)nc2)nc(N2CCOCC2)n1 [Compound 448] | < 1000 | < 10000 | – | – |
| COc1ccc(Nc2cc(-c3ccc(N)nc3)nc(N3CCOCC3)n2)cc1OC [Compound 388] | – | – | < 1000 | – |
| Nc1cc(C(F)(F)F)c(-c2cc(Nc3cc(C(F)(F)F)ccn3)nc(N3CCOCC3)n2)cn1 [Compound 243] | – | – | < 1000 | – |
| Nc1cc(C(F)(F)F)c(-c2cc(N3CCN(c4ccccc4)C(=O)C3)nc(N3CCOCC3)n2)cn1 [Compound 416] | < 1000 | – | – | – |
| CC(C)C(=O)N1CC[C@H](Oc2cc(-c3cnc(N)cc3C(F)(F)F)nc(N3CCOCC3)n2)C1 [Compound 533] | < 10000 | – | – | – |
| COc1ccc(Nc2cc(-c3ccc(N)nc3)nc(N3CCOCC3)n2)cn1 [Compound 2] | < 1000 | – | – | – |
| Nc1ncc(-c2cc(Nc3cnc4ccccc4c3)nc(N3CCOCC3)n2)c(=O)[nH]1 [Compound 470] | – | < 10000 | – | – |
| Nc1ccc(-c2cc(N3CCOCC3)nc(N3CCOCC3)n2)c(F)n1 [Compound 550] | – | < 10000 | – | – |
| Nc1ccc(-c2cc(N3CCCc4ccccc43)nc(N3CCOCC3)n2)cn1 [Compound 382] | – | – | < 1000 | – |
| Nc1cc(C(F)(F)F)c(-c2cc(Nc3ccc(NCC(=O)O)nc3)nc(N3CCOCC3)n2)cn1 [Compound 490] | < 1000 | – | – | – |
| Cc1cc(-c2cc(Nc3cnc4ccccc4c3)nc(N3CCOCC3)n2)cnc1N [Compound 365] | – | – | < 10000 | – |
| Nc1ccc(-c2cc(N3CCc4ccccc4C3)nc(N3CCOCC3)n2)cn1 [Compound 375] | – | – | < 1000 | – |

Results, then the compound that gave them:

| IC50 (PI3 kinase alpha) [nM] | EC50 ([1]; ovarian cancer cell line A2780) [nM] | IC50 (PI3 kinase alpha; Biological Method 1) [nM] | EC50 [1, 2] [nM] | SMILES |
| --- | --- | --- | --- | --- |
| < 1000 | < 10000 | – | – | CN(c1cc(-c2cnc(N)nc2)nc(N2CCOCC2)n1)C1CCCCC1 [Compound 404] |
| < 1000 | < 1000 | – | – | Nc1ncc(-c2cc(Nc3ccc4c(c3)OCC(=O)N4)nc(N3CCOCC3)n2)cn1 [Compound 412] |
| < 1000 | < 10000 | – | – | COc1ccc(Nc2nc(N3CCOCC3)nc(-c3cnc(N)nc3)c2C)cn1 [Compound 480] |
| < 1000 | < 10000 | – | – | Cc1c(-c2cnc(N)nc2)nc(N2CCOCC2)nc1-c1cnc(N)nc1 [Compound 484] |
| < 1000 | < 10000 | – | – | CN1CCC(Nc2ccc(Nc3cc(-c4ccc(N)nc4)nc(N4CCOCC4)n3)cn2)CC1 [Compound 501] |
| – | – | < 10000 | < 25000 | Nc1ccc(-c2nc(N3CCOCC3)ncc2N)cn1 [Compound 259] |
| < 1000 | < 10000 | – | – | Nc1cc(C(F)(F)F)c(-c2cc(O[C@H]3CCOC3)nc(N3CCOCC3)n2)cn1 [Compound 26] |
| – | – | < 1000 | < 25000 | Nc1cc(-c2cnc(N)nc2)nc(N2CCOCC2)n1 [Compound 301] |
| – | – | < 1000 | < 25000 | Nc1ncc(-c2cc(C(=O)N3CCCCC3)nc(N3CCOCC3)n2)cn1 [Compound 234] |
| – | – | < 1000 | < 10000 | Nc1ncc(-c2cc(-c3cnc(N)nc3)nc(N3CCOCC3)n2)cn1 [Compound 279] |
| < 1000 | < 1000 | – | – | Cc1c(Nc2ccc3c(c2)OCCO3)nc(N2CCOCC2)nc1-c1cnc(N)nc1 [Compound 481] |
| – | – | < 1000 | < 1000 | Nc1ncc(-c2cc(-c3cncc(O)c3)nc(N3CCOCC3)n2)cn1 [Compound 274] |
| – | – | < 1000 | < 10000 | Nc1ncc(-c2cc(NC3CCOCC3)nc(N3CCOCC3)n2)c(C(F)(F)F)n1 [Compound 321] |
| – | – | < 1000 | < 10000 | Nc1ccc(-c2cc(N3CCOC(c4ccccc4)C3)nc(N3CCOCC3)n2)cn1 (stereo not shown) [Compound 371] |
| – | – | < 1000 | < 10000 | NC(=O)C1CN(c2cc(-c3cnc(N)cc3C(F)(F)F)nc(N3CCOCC3)n2)CCO1 (stereo not shown) [Compound 320] |
| – | – | < 1000 | < 25000 | Nc1ccc(-c2cc(Cl)nc(N3CCOCC3)n2)cn1 [Compound 369] |
| – | – | < 1000 | < 10000 | Nc1ncc(-c2cc(C(=O)N3CCNCC3)nc(N3CCOCC3)n2)cn1 [Compound 233] |
| – | – | < 1000 | < 25000 | CNC(=O)c1cc(-c2cnc(N)nc2)nc(N2CCOCC2)n1 [Compound 232] |
| < 1000 | < 1000 | – | – | Nc1ncc(-c2cc(-c3cccnc3)nc(N3CCOCC3)n2)cn1 [Compound 518] |
| < 1000 | – | – | – | Nc1cc(C(F)(F)F)c(-c2cc(CNC(=O)OC3CCOC3)nc(N3CCOCC3)n2)cn1 (stereo not shown) [Compound 542] |
| – | – | < 1000 | – | Nc1ncc(-c2cc(C(=O)O)nc(N3CCOCC3)n2)cn1 [Compound 236] |
| < 1000 | – | – | – | Nc1ccc(-c2ccnc(N3CCOCC3)n2)cn1 [Compound 513] |
| < 10000 | – | – | – | Nc1ncc(-c2nc(N3CCOCC3)ncc2C(=O)N2CCCC2)cn1 [Compound 425] |
| – | – | < 1000 | – | Nc1ncc(-c2cc(N[C@@H]3CCCC[C@H]3OCc3ccccc3)nc(N3CCOCC3)n2)cn1 [Compound 397] |
| < 10000 | – | – | – | Nc1ncc(-c2nc(N3CCOCC3)ncc2C(=O)NCC2CCCO2)cn1 (stereo not shown) [Compound 421] |
| < 10000 | – | – | – | CC(=O)NCCNC(=O)c1cnc(N2CCOCC2)nc1-c1cnc(N)nc1 [Compound 423] |
| < 1000 | – | – | – | Nc1ccc(-c2cc(-c3ccc(NCCN4CCCC4)nc3)nc(N3CCOCC3)n2)cn1 [Compound 506] |
